Experimental data: patent US11571411B2, “Use of a bisamide derivative of malonic acid for treating allergic and other diseases in humans and animals” (PHARMENTERPRISES ALLERGY LLC, priority 2018, dated 2023)

Columns and labels:
[1] = test system: ovalbumin-induced allergic rhinitis model; assay: Ovalbumin-induced allergic rhinitis model in guinea pigs, nasal administration of 1% solution; assay type: in vivo, guinea pig; details: for Number of eosinophils per 1 μL of lavage fluid / Number of nose scratchings / Number of sneezes: 1% solution once intranasally
Experimental: Int Immunopharmacol. 2013. V.17(1). P.18-25]. Guinea pigs (250-300 g) were immunized with 4× (on days 0, 7, 14 and 21) intraperitoneal administration of a mixture of ovalbumin (100 μg/pig) and aluminum hydroxide (5 mg/pig), diluted and suspended in saline. On day 28 of the study, an ovalbumin solution (60 mg/ml) was injected intranasally to the animals, 20 μl into each nostril. On day 35, after shaving the skin on the back, the animals were injected intradermally with an ovalbumin solution (200 μg/ml, 25 μl). […] On day 42 of the study, an ovalbumin solution (60 mg/ml, 20 μl/nostril) was administered intranasally. A group of sham-immunized animals was formed in order to control the formation of allergic inflammation: the pigs received an aluminum hydroxide solution (5 mg/pig) on days 0, 7, 14 and 21, a saline solution on days 28 and 35, and an ovalbumin solution (60 mg/ml, 20 μl/nostril) on day 42.
A 1% solution of Compound I was administered to the animals intranasally once 1 hour or 3 hours before intranasal administration of ovalbumin in a volume of 10 μl/nostril. Clinical manifestations of rhinitis were assessed within 2 hours after the last administration of ovalbumin: the numbers of sneezes and nose scratchings were counted. In addition, eosinophils were counted in the nasal lavage fluid.

[2] = test system: ovalbumin-induced allergic rhinitis model; assay: Ovalbumin-induced allergic rhinitis model in guinea pigs, oral administration; assay type: in vivo, guinea pig; details: intragastrically; for Number of nose scratchings / Number of sneezes: within 2 hours after ovalbumin
Experimental: Int Immunopharmacol. 2013. V.17(1). P.18-25]. Guinea pigs (250-300 g) were immunized with 4× (on days 0, 7, 14 and 21) intraperitoneal administration of a mixture of ovalbumin (100 μg/pig) and aluminum hydroxide (5 mg/pig), diluted and suspended in saline. On day 28 of the study, an ovalbumin solution (60 mg/ml) was injected intranasally to the animals, 20 μl into each nostril. On day 35, after shaving the skin on the back, the animals were intradermally injected with an ovalbumin solution (200 μg/ml, 25 μl). […] On day 42 of the study, an ovalbumin solution (60 mg/ml, 20 μl/nostril) was administered intranasally. A group of sham-immunized animals was formed in order to control the formation of allergic inflammation: the pigs received an aluminum hydroxide solution (5 mg/pig) on days 0, 7, 14 and 21, a saline solution on days 28 and 35, and an ovalbumin solution (60 mg/ml, 20 μl/nostril) on day 42. Table 1 presents data on clinical manifestations of pathology and the number of eosinophils in the lavage fluid in guinea pigs on the allergic rhinitis experimental model after oral administration (M±m, n=10)
Compound I was administered to animals intragastrically 48, and 1 hour before intranasal administration of ovalbumin. Clinical manifestations of rhinitis were assessed within 2 hours after the last administration of ovalbumin: the numbers of sneezes and nose scratchings were counted. In addition, eosinophils were counted in the nasal lavage fluid.

[3] = target: T1, human histamine receptor type 3 (Homo sapiens, UniProt Q9Y5N1); assay: Binding of radiolabeled ligand [3H]Nα-methylhistamine to histamine receptor type 3; details: CHO cells, [3H]Nα-methylhistamine (1 nM)
T1 construct: expressed in transfected cells; host or cells: CHO cells
T1 sequence (Q9Y5N1 whole entry): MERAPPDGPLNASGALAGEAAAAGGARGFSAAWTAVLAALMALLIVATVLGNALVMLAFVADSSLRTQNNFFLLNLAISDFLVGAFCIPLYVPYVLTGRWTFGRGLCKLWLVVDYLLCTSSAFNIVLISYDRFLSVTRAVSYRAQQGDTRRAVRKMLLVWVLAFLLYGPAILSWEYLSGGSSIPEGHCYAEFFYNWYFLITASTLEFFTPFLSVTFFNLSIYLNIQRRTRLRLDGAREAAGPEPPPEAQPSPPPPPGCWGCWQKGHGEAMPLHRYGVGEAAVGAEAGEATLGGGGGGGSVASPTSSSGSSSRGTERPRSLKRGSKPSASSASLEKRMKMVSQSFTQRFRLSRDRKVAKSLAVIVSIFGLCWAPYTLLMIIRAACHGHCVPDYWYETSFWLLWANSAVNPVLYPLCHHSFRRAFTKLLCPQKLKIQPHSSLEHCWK

[4] = test system: histamine-induced nasal congestion model; assay: Histamine-induced nasal congestion model in dogs, nasal administration of 1% solution; assay type: in vivo, Beagle dogs; details: 1% solution intranasally
Experimental: A histamine-induced nasal congestion model in dogs was performed according to the standard procedure [Tiniakov R. L., Tiniakova O. P., McLeod R. L., Hey J. A., Yeates D. B. Canine model of nasal congestion and allergic rhinitis//J Appl Physiol. 2003. V.94(5). P.1821-1828]. Beagle dogs were injected to the nasal cavity with a 5% histamine solution in a volume of 250 μl/nostril. The volume of the nasal cavity of the right and left nostrils was measured using a rhinometer before and 5, 10, 15, 20, 30, 40, 50 and 60 minutes after administration of histamine. Five experiments were carried out in which Compound I was administered intranasally once in the form of a 1% solution in a volume of 50 μl at different time periods: 1) 5 minutes after the administration of histamine; 2) right before administration of histamine; 3) 3 hours before administration of histamine; 4) […] administration of histamine; and 5) 8 hours before administration of histamine.

[5] = 1 hour before the last administration of ovalbumin
[6] = 3 hours before the last administration of ovalbumin

O=C(CC(=O)NCCc1cnc[nH]1)NCCc1cnc[nH]1 [Compound I, N,N′-bis(2-(1H-imidazol-5-yl)ethyl)malonamide]
duration of the therapeutic effect ([1]; 1% solution intranasally, guinea pigs, allergic rhinitis): at least 3 hours | Number of eosinophils per 1 μL of lavage fluid [1, 5]: 1416.9 ± 126.8*#& per 1 μL | Number of nose scratchings [1, 5]: 14.5 ± 4.4& | Number of sneezes [1, 5]: 3.1 ± 1.2#& | Number of eosinophils per 1 μL of lavage fluid [1, 6]: 1490.1 ± 241.0*#& per 1 μL | Number of nose scratchings [1, 6]: 10.7 ± 2.1#& | Number of sneezes [1, 6]: 3.9 ± 1.5& | Number of eosinophils per 1 μL of lavage fluid ([2]; 0.014 mg/kg): 1300.5 ± 93.8*#& per 1 μL | Number of nose scratchings ([2]; 0.014 mg/kg): 16.1 ± 2*#& | Number of sneezes ([2]; 0.014 mg/kg): 11.6 ± 1.4*#& | Number of eosinophils per 1 μL of lavage fluid ([2]; 0.042 mg/kg): 1219.6 ± 159.4*#& per 1 μL | Number of nose scratchings ([2]; 0.042 mg/kg): 16.2 ± 2.7*& | Number of sneezes ([2]; 0.042 mg/kg): 10.5 ± 1.2*#& | Number of eosinophils per 1 μL of lavage fluid ([2]; 0.14 mg/kg): 1141.5 ± 128.5*#& per 1 μL | Number of nose scratchings ([2]; 0.14 mg/kg): 13.3 ± 1.3*& | Number of sneezes ([2]; 0.14 mg/kg): 8.3 ± 0.9*#& | Number of eosinophils per 1 μL of lavage fluid ([2]; 0.42 mg/kg): 1069.0 ± 139.4*#& per 1 μL | Number of nose scratchings ([2]; 0.42 mg/kg): 16.2 ± 2.0*#& | Number of sneezes ([2]; 0.42 mg/kg): 5.2 ± 0.6*& | Number of eosinophils per 1 μL of lavage fluid ([2]; 1.4 mg/kg): 984.1 ± 111.0*#& per 1 μL | Number of nose scratchings ([2]; 1.4 mg/kg): 14.4 ± 3.3*& | Number of sneezes ([2]; 1.4 mg/kg): 6.9 ± 0.8*#& | Ki [3]: 2.7 µM | duration of the therapeutic effect [4]: at least 8 hours | onset time of the therapeutic effect [4]: no more than 5 minutes
